Source: patent US8927547B2, “Pyrimidine derivatives” (Noviga Research AB, priority 2010, dated 2015)

Tests used:
Type in all cases: cell-based
HCT116 = assay: FMCA, HCT116 colon cancer; details: Homo sapiens, HCT-116, read-out: EC50 (μM) in various cancer cell lines: HCT116
From the text: (§1) The Fluorometric Microculture Cytotoxicity Assay, FMCA, is a three day non-clonogenic microplate-based cell viability assay used for measurement of the cytotoxic and/or cytostatic effect of compounds in vitro (Lindhagen, E., et al. Nat Protoc, 2008. 3(8): p. 1364-9). FMCA (Larsson, R. and P. Nygren, Anticancer Res, 1989. 9(4): p. 1111-9) represents a valuable method to measure cytotoxicity in a number of cell types, both cell lines and primary cells from patients (Larsson, R., et al., Int J Cancer, 1992. 50(2): p. 177-85; Fridborg, H., et al., Eur J Cancer, 1999. 35(3): p. 424-32; Dhar, S., et al., Br J Cancer, 1996. 74(6): p. 888-96).
(§2) FMCA is based on the principle that fluorescein diacetate (FDA) is converted to the fluorescent probe fluorescein by esterases in the plasma membranes of living cells. For experiments, 96 or 384-well microplates are prepared with compounds and stored at −70° C. until use. Cells are then seeded into the drug-prepared plates and placed in an incubator for 72 h. On the last day of incubation, the plates are washed and a buffer containing FDA is added and incubated with the cells for 45 minutes. Finally the fluorescence per well is measured in a fluorometer and a Survival Index % (SI) for each compound-treated well is calculated with the equation: Compound-treated cells minus blank divided by control cells minus blank. A high SI-value indicates a large percentage of living cells and vice versa.
(§3) Compounds of the invention as well as kinase inhibitors sorafenib, sunitinib, dasatinib, and pazopanib (reference compounds) were diluted with PBS to a concentration which was ten-times higher than the desired starting concentration. Then, a Biomek 2000 liquid handling system was employed to serially dilute the compounds in a deep-well 384-well plate. From this plate, assay plates containing 5 μl compound per well were prepared with the Biomek 2000. Certain compounds precipitated when diluted with PBS, and these compounds were therefore prepared in a 96-well plate manually as described above using culture medium RPMI 1640 instead of PBS.
(§4) The compounds were also tested at five concentrations, with five times serial dilution on the following cell types: CCRF-CEM, hTERT-RPE1 (normal retinal epithelial cells), hRPTEpiC (normal renal cells) and PBMC (peripheral blood mononuclear cells). Each experiment was performed three times, except for PBMC and hRPTEpiC, which were performed twice. SI-values were calculated, graphs were plotted using GraphPadPrism 5.0 (GraphPad Software Inc. La Jolla, Calif.) and EC50-values for each cell type and compound were determined from the curves.
(§5) The compounds of the invention were also tested on further cancer cell lines related to colon cancer (HCT116; see e.g Brattain M G, et al. Cancer Res. 1981, 41, 1751-1756), breast cancer (MCF7; see e.g. Soule H D, et al. J. Natl. Cancer Inst. 1973, 51, 1409-1416), teniposide-resistant leukaemia (CEM/VM1; see e.g. Danks M K et al. Cancer Res. 1987, 47, 1297-1301), lung cancer (H69; see e.g. Gazdar A F, et al. Cancer Res. 1980, 40, 3502-3507), doxorubicin-resistant lung cancer (H69AR; see e.g. Mirski S E, et al. Cancer Res. 1987, 47, 2594-2598), myeloma (RPMI 8226; see e.g. Matsuoka Y, et al. Proc. Soc. Exp. Biol. Med. 1967, 125, 1246-1250), doxorubicin-resistant myeloma (8226/Dox40; see e.g. Dalton W S et al. Blood 1989, 15,747-752), lymphoma (U-937, see e.g. Sundstrom C, et al. Int. J. Cancer 1976, 17, 565-577), vincristin-resistant lymphoma (U-937-vcr; see e.g. Botling J, et al. Int J Cancer 1994, 15; 58 (2), 269-274), ovarian cancer (A2780; see e.g. Hamilton T C, et al. Semin Oncol. 1984, 11, 285-298), doxorubicin-resistant ovarian cancer (A2780/Adr), cisplatin-resistant ovarian cancer (A2780/Cis; see e.g. Behrens B C, et al. Cancer Res. 1987, 47, 414-418), renal cancer (ACHN; see e.g. Borden E C, et al. Cancer Res. 1982, 42(12), 4948-4953), pancreatic cancer (PANC-1, BxPC-3, and MIA PaCa-2; see e.g. Lieber M, et al. Int. […]

H69 = assay: FMCA, H69 lung cancer; details: Homo sapiens, NCI-H69, read-out: EC50 (μM) in various cancer cell lines: H69
From the text: as §1, §2, §3, §4, §5

ACHN = assay: FMCA, ACHN renal cancer; details: Homo sapiens, read-out: EC50 (μM) in various cancer cell lines: ACHN
From the text: as §1, §2, §3, §4, §5

A2780 = assay: FMCA, A2780 ovarian cancer; details: Homo sapiens, read-out: EC50 (μM) in various cancer cell lines: A2780
From the text: as §1, §2, §3, §4, §5

8226/Dox40 = assay: FMCA, 8226/Dox40 doxorubicin-resistant myeloma; details: read-out: EC50 (μM) in various cancer cell lines: 8226/Dox40
From the text: as §1, §2, §3, §4, §5

RPMI 8226 = assay: FMCA, RPMI 8226 myeloma; details: Homo sapiens, read-out: EC50 (μM) in various cancer cell lines: RPMI 8226
From the text: as §1, §2, §3, §4, §5

MCF7 = assay: FMCA, MCF7 breast cancer; details: Homo sapiens, read-out: EC50 (μM) in various cancer cell lines: MCF7
From the text: as §1, §2, §3, §4, §5

U-937 = assay: FMCA, U-937 lymphoma; details: Homo sapiens, read-out: EC50 (μM) in various cancer cell lines: U-937
From the text: as §1, §2, §3, §4, §5

A2780/Adr = assay: FMCA, A2780/Adr doxorubicin-resistant ovarian cancer; details: read-out: EC50 (μM) in various cancer cell lines: A2780/Adr
From the text: as §1, §2, §3, §4
(§6) The compounds of the invention were also tested on further cancer cell lines related to colon cancer (HCT116; see e.g Brattain M G, et al. Cancer Res. 1981, 41, 1751-1756), breast cancer (MCF7; see e.g. Soule H D, et al. J. Natl. Cancer Inst. 1973, 51, 1409-1416), teniposide-resistant leukaemia (CEM/VM1; see e.g. Danks M K et al. Cancer Res. 1987, 47, 1297-1301), lung cancer (H69; see e.g. Gazdar A F, et al. Cancer Res. 1980, 40, 3502-3507), doxorubicin-resistant lung cancer (H69AR; see e.g. Mirski S E, et al. Cancer Res. 1987, 47, 2594-2598), myeloma (RPMI 8226; see e.g. Matsuoka Y, et al. Proc. Soc. Exp. Biol. Med. 1967, 125, 1246-1250), doxorubicin-resistant myeloma (8226/Dox40; see e.g. Dalton W S et al. Blood 1989, 15,747-752), lymphoma (U-937, see e.g. Sundstrom C, et al. Int. […]

U-937-vcr = assay: FMCA, U-937-vcr vincristin-resistant lymphoma; details: read-out: EC50 (μM) in various cancer cell lines: U-937-ver
From the text: as §1, §2, §3, §4, §5

A2780/Cis = assay: FMCA, A2780/Cis cisplatin-resistant ovarian cancer; details: A2780cis, read-out: EC50 (μM) in various cancer cell lines: A2780/Cis
From the text: as §1, §2, §3, §4, §6

CEM/VM1 = assay: FMCA, CEM/VM1 teniposide-resistant leukaemia; details: Homo sapiens, read-out: EC50 (μM) in various cancer cell lines: CEM/VM1
From the text: as §1, §2, §3, §4, §5

[1] = tested on: CCRF-CEM cancer cells - leukaemia; assay: Fluorometric Microculture Cytotoxicity Assay (FMCA), CCRF-CEM; details: Homo sapiens, 72 h incubation
From the text: as §1, §2
In subsequent experiments, compounds were tested, along with kinase inhibitors (dasatinib, pazopanib, sorafenib, and sunitinib) as described above. Initially, the acute lymphoblastic leukaemia cell line CCRF-CEM (see e.g. Foley G E, et al. Cancer 1965, 18, 522-529) was used throughout. In the assay plates, medium was added to six empty wells (blank wells) and wells were filled with PBS and cell suspension and served as control wells. SI-values were then calculated for each compound-treated well as described above. All experiments were conducted twice and a new batch of plates was prepared for each experiment.
For dose-response experiments, 384-well plates were prepared as follows:
as §3, §4

H69AR = assay: FMCA, H69AR doxorubicin-resistant lung cancer; details: Homo sapiens, read-out: EC50 (μM) in various cancer cell lines: H69 AR
From the text: as §1, §2, §3, §4, §5

PANC-1 = assay: FMCA, PANC-1 pancreatic cancer; details: Homo sapiens, read-out: EC50 (μM) in various cancer cell lines: PANC-1
From the text: as §1
as §2, with “versa. […]” for “versa.”
(§7) The compounds were also tested at five concentrations, with five times serial dilution on the following cell types: CCRF-CEM, hTERT-RPE1 (normal retinal epithelial cells), hRPTEpiC (normal renal cells) and PBMC (peripheral blood mononuclear cells). […] SI-values were calculated, graphs were plotted using GraphPadPrism 5.0 (GraphPad Software Inc. La Jolla, Calif.) and EC50-values for each cell type and compound were determined from the curves. […]

MIA PaCa-2 = assay: FMCA, MIA PaCa-2 pancreatic cancer; details: Homo sapiens, read-out: EC50 (μM) in various cancer cell lines: MIA PaCa-2
From the text: as §1
as §2, with “versa. […]” for “versa.”
as §7

BxPC-3 = assay: FMCA, BxPC-3 pancreatic cancer; details: Homo sapiens, read-out: EC50 (μM) in various cancer cell lines: BxPC-3
From the text: as §1
as §2, with “versa. […]” for “versa.”
as §7

Row | Compound | EC50 (HCT116) [µM] | EC50 (H69) [µM] | EC50 (ACHN) [µM] | EC50 (A2780) [µM] | EC50 (8226/Dox40) [µM] | EC50 (RPMI 8226) [µM] | EC50 (MCF7) [µM] | EC50 (U-937) [µM] | EC50 (A2780/Adr) [µM] | EC50 (U-937-vcr) [µM] | EC50 (A2780/Cis) [µM] | EC50 (CEM/VM1) [µM] | EC50 [1] [nM] | EC50 (H69AR) [µM] | EC50 (PANC-1) [µM] | EC50 (MIA PaCa-2) [µM] | EC50 (BxPC-3) [µM]
1 | c1cc(Nc2nccc(NCc3ccc4[nH]ccc4c3)n2)c2cc[nH]c2c1 [Example 1, N^4-(1H-indol-5-ylmethyl)-N^2-(1H-indol-4-yl)pyrimidine-2,4-diamine] | 6.7 | 10.8 | 2.54 | 0.7 | 0.37 | 0.5 | 9 | 0.07 | 2.4 | 0.07 | 0.35 | 0.12 | 330 |  |  |  | 
2 | COc1ccc2[nH]cc(CCNc3nccc(NCc4ccc5[nH]ccc5c4)n3)c2c1 [Example 12, N^4-(1H-indol-5-ylmethyl)-N^2-[2-(5-methoxy-1H-indol-3-yl)ethyl]pyrimidine-2,4-diamine] | 0.63 | 7.84 | 1.9 | 0.47 | 1.81 | 0.53 | 3.88 | 0.27 | 1.9 | 0.3 | 0.61 | 0.17 | 760 | 0.27 | < 0.1 | < 0.1 | < 0.1
3 | c1cc(Nc2nccc(NCc3ccc4[nH]cnc4c3)n2)c2cc[nH]c2c1 [Example 19, N^4-(1H-benzo[d]imidazol-5-ylmethyl)-N^2-(1H-indol-4-yl)pyrimidine-2,4-diamine] | 9.83 | 30.7 | 25.2 | 1.59 | 46.3 | 12.8 | 28.5 | 1.47 | 12.6 | 1.81 | 1.99 | 1.33 | 1020 |  | < 1 | < 1 | < 1
4 | Cc1cc2cc(Nc3ccnc(NCc4ccc5[nH]ccc5c4)n3)ccc2[nH]1 [Example 24, N^2-(1H-indol-5-ylmethyl)-N^4-(2-methyl-1H-indol-5-yl)pyrimidine-2,4-diamine] | 0.51 | 9.35 | 1.26 | 0.28 | 0.41 | 0.23 | 4.43 | 0.19 | 0.6 | 0.19 | 0.22 | 0.21 | 380 | 0.46 |  |  | 
5 | Cc1cc(NCc2ccc3[nH]ncc3c2)nc(Nc2cccc3[nH]ccc23)n1 [Example 37, N^4-(1H-indazol-5-ylmethyl)-N^2-(1H-indol-4-yl)-6-methylpyrimidine-2,4-diamine] | 6.2 | 11.6 | 3.08 | 0.45 | 2.02 | 0.81 | 4.92 | 0.29 | 1.71 | 0.34 | 0.32 | 0.23 | 420 |  | < 0.1 | < 0.1 | < 0.1
